Assay results taken from patent publication US20090054333A1, “Peptide inhibitors of cyclin-dependent kinase activity and uses thereof” (priority 2006, published 2009).
Values belong to the molecule of their own block, whether it stands above or below them. No end group written: not given here.

Biological target: cdk2
Assay: in vitro cdk2 kinase assay with GST-fusion proteins, histone H1 substrate
Format: biochemical
Design: key to Kinase assay (inhibitory effect on cdk2 activity): P=positive; N=negative
Conditions: for Kinase assay (inhibitory effect on cdk2 activity): 0.1 μg GST-fusion protein, cdk2 immunoprecipitated from NIH/3T3; for inhibitory effect on cdk2 activity / histone H1 phosphorylation in vitro: GST-fusion protein added to cdk2 immunoprecipitate from NIH/3T3
Protocol: Constructs preparation: A prokaryotic expression vector pGEX-2T (Stratagene Inc., La Jolla Calif.) and polymerase chain reaction (PCR) were used to generate chimeric Glutathione-S-Transferase constructs. The primers used by PCR to amplify the fragments that were subcloned in the pGEX-2T were derived from the 5′ and 3′ ends of different regions of the spacer domain of […]. The mammalian expression vector pEF6/V5-His TOPO (Invitrogen Corp, Carlsbad, Calif.) was used to generate the constructs pEF6/V5-His-spacer and pEF6/V5-His-310 that express the correspondent genes with a C-terminal V5 epitope. The spacer and the 310 fragments were PCR-amplified with the respective primers (Table 1) to generate 3′ends of the cDNAs without stop codons and were subsequently subcloned into pEF6/V5-His TOPO (Invitrogen Corp, Carlsbad, Calif.) according to the manufacturer's instructions to obtain cDNAs coding for C-terminal fusion proteins. All generated constructs were confirmed by automated sequencing. Information regarding the primers is available upon request.
GST Fusion protein preparation: XL1-Blue bacteria carrying the pGEX-2T vectors were grown to mid log phase and then induced to express protein by adding 0.25 mM of isopropyl-1-thio-β-D-galactopyranoside (IPTG, Roche Applied Science, Indianapolis, Ind.). The cultures were shaken for 4 h; bacteria were then pelleted and resuspended in NENT buffer (20 mM Tris pH 8, 100 mM NaCl, 1 mM EDTA, 0.5% NP-40). Cell suspensions were sonicated, pelleted and the supernatant collected. The remaining bacteria were then resuspended in NENT buffer plus 2% of N-Lauryl-Sarcosine, pelleted and the supernatants were collected again. The combined supernatants were incubated with Glutathione agarose (Amersham Biosciences, Piscataway, N.J.) overnight at 4° C. The agarose was then pelleted and washed three times in NENT buffer.
Kinase assays: Cell lysates from NIH/3T3 were prepared by resuspending pelleted cells in 500 μl of lysis buffer (50 mM Tris, 5 mM EDTA, 250 mM NaCl, 50 mM NaF, 0.1% Triton, 0.1 mM Na3VO4, plus protease inhibitors). An equal amount of protein for each fraction (100 μg) was immunoprecipitated with a polyclonal anti-cdk2 antibody (De Luca et al., 1997, J Biol Chem, 272, 20971-4). The complexes were pulled down with protein A-Sepharose and washed three times with lysis buffer and twice with lysis buffer containing 400 mM NaCl. The complexes were equilibrated in kinase assay buffer (20 mM HEPES pH 7.4, 10 mM MgAc, […], 1 mM DTT). In order to detect the in vitro inhibition of cdk2 activity, each sample was incubated with an equal amount (0.1 μg) of each pGEX-2T fusion protein, in a final volume of 20 μl of kinase buffer, using 5 μCi/sample of γ-ATP (Amersham Biosciences, Piscataway, N.J.) and 2 μg of Histone H1 for 30 minutes at 30° C. Kinase assays were repeated at least three times, giving an inter assay standard deviation within 10% after normalization for protein amount. In order to evaluate the in vivo inhibition of cdk2 activity, cdk2 was immunoprecipitated, as described above, from NIH/3T3 cells transiently transfected with 5 μg of pEF6/V5-spacer, pEF6/V5-Spa310 or the vector alone as a control. The immunocomplexes were split in two tubes. A half of each sample was assayed for cdk2 activity in a final volume of 20 μl of kinase buffer with 5 μCi/sample of γ-ATP and 2 μg of Histone H1 for 30 min. at 30° C.; the second one was tested in western blot analysis to confirm that all the samples contained the amount of cdk2 immunoprecipitated. Briefly the samples were separated into 12% SDS polyacrylamide gels (SDS-PAGE), and then transferred into a nitrocellulose membrane (Schleicher & Schuell, Germany). The membrane was blocked with 5% non-fat dry milk in 1×TBST and incubated with the polyclonal anti-cdk2 antibody described above. […]

- Kinase assay (inhibitory effect on cdk2 activity): N
- inhibitory effect on cdk2 activity / histone H1 phosphorylation in vitro: little or no inhibitory effect
Molecule: Spa2: pRb2/p130 spacer fragment, amino acids 641-666, 26 amino acids (LTPRRVTEVRADTGGLGRSITSPTTL; UniProt Q08999 641-666, looked up, fragment)

- Kinase assay (inhibitory effect on cdk2 activity): N
Molecule: Spb: pRb2/p130 spacer fragment, amino acids 712-754, 43 amino acids (VSGETVSVTPVPGQTLVTMATATVTANNGQTVTIPVQGIANEN; also: fused to dimerising Fc or GST)

- Kinase assay (inhibitory effect on cdk2 activity): N
Molecule: Spa72: Table 1 construct: pRb2/p130 spacer fragment, amino acids 652-711, 60 amino acids (DTGGLGRSITSPTTLYDRYSSPPASTTRRRLFVENDSPSDGGTPGRMPPQPLVNAVPVQN; also: fused to dimerising Fc or GST)

- Kinase assay (inhibitory effect on cdk2 activity): N
Molecule: Spa12: pRb2/p130 spacer fragment, amino acids 616-666, 51 amino acids (VPTCEEVMPPQNLERADEICIAGSPLTPRRVTEVRADTGGLGRSITSPTTL; cysteine pairing not given here; also: fused to dimerising Fc or GST)

- Kinase assay (inhibitory effect on cdk2 activity): P
Molecule: Spa311: pRb2/p130 amino acids 641 to 682 (42 amino acids long), SEQ ID NO:2 (LTPRRVTEVRADTGGLGRSITSPTTLYDRYSSPPASTTRRRL; listed as Homo sapiens)

- Kinase assay (inhibitory effect on cdk2 activity): N
- inhibitory effect on cdk2 activity / histone H1 phosphorylation in vitro: little or no inhibitory effect
Molecule: Spa3: pRb2/p130 spacer fragment, amino acids 663-711, 49 amino acids (PTTLYDRYSSPPASTTRRRLFVENDSPSDGGTPGRMPPQPLVNAVPVQN; also: fused to dimerising Fc or GST)

- Kinase assay (inhibitory effect on cdk2 activity): N
Molecule: Spa312: pRb2/p130 spacer fragment, amino acids 641-673, 33 amino acids (LTPRRVTEVRADTGGLGRSITSPTTLYDRYSSP; also: fused to dimerising Fc or GST)

- Kinase assay (inhibitory effect on cdk2 activity): N
- inhibitory effect on cdk2 activity / histone H1 phosphorylation in vitro: little or no inhibitory effect
Molecule: Spa1: pRb2/p130 spacer fragment, amino acids 616-642, 27 amino acids (VPTCEEVMPPQNLERADEICIAGSPLT; cysteine pairing not given here; also: fused to dimerising Fc or GST)

- Kinase assay (inhibitory effect on cdk2 activity): P
B1: Spa38: pRb2/p130 amino acids 641 to 702 (62 amino acids long), SEQ ID NO:1 (protein, listed as Homo sapiens)
chain: LTPRRVTEVRADTGGLGRSITSPTTLYDRYSSPPASTTRRRLFVENDSPSDGGTPGRMPPQP

- Kinase assay (inhibitory effect on cdk2 activity): P
- inhibitory effect on cdk2 activity / histone H1 phosphorylation in vitro: able to inhibit cdk2 activity
B2: Spa23: Table 1 construct: pRb2/p130 spacer fragment, amino acids 641-711, 71 amino acids (protein)
chain: LTPRRVTEVRADTGGLGRSITSPTTLYDRYSSPPASTTRRRLFVENDSPSDGGTPGRMPPQPLVNAVPVQN
modifications: left off: a dimerising Fc or GST

- Kinase assay (inhibitory effect on cdk2 activity): P
B3: Spa: pRb2/p130 spacer fragment, amino acids 616-711, 96 amino acids (protein)
chain: VPTCEEVMPPQNLERADEICIAGSPLTPRRVTEVRADTGGLGRSITSPTTLYDRYSSPPASTTRRRLFVENDSPSDGGTPGRMPPQPLVNAVPVQN
modifications: left off: a dimerising Fc or GST
- inhibitory effect on cdk2 activity / histone H1 phosphorylation in vitro: inhibitory effect on histone H1 phosphorylation

- Kinase assay (inhibitory effect on cdk2 activity): N
B4: Spc: pRb2/p130 spacer fragment, amino acids 755-828, 73 amino acids (protein)
chain: GGITFFPVQVNVGGQAQAVTGSIQPLSAQALAGSLSSQQVTGTTLQVPGQVAIQQISPGGQQQKQGQSVTSSSN
modifications: left off: a dimerising Fc or GST
notes: pRb2/p130 spacer fragment, amino acids 755-828, 73 amino acids
